#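 Results reflect a 48-hour exposure of cells in 96-well plates to compound at five concentrations. TGI: concentration producing complete growth inhibition.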
# Experiments:
# Assay in all cases: NCI anticancer screen, dose series, 48 h
# UACC-257 melanoma = test system: UACC-257 melanoma
# HCT-116 colon = test system: HCT-116 colon
# CAKI-1 renal = test system: CAKI-1 renal
# HT29 colon = test system: HT29 colon
# SNB-19 CNS = test system: SNB-19 CNS
# LOX IMVI melanoma = test system: LOX IMVI melanoma
# HCT-15 colon = test system: HCT-15 colon
# UACC-62 melanoma = test system: UACC-62 melanoma
# SNB-75 CNS = test system: SNB-75 CNS
# SF-539 CNS = test system: SF-539 CNS
# DU-145 prostate = test system: DU-145 prostate
# OVCAR-5 ovarian = test system: OVCAR-5 ovarian
# NCI-H23 lung = test system: NCI-H23 lung
# MDA-MB-231 breast = test system: MDA-MB-231 breast
# MDA-MB-435 = test system: MDA-MB-435
# SW-620 colon = test system: SW-620 colon
# MOLT-4 leukemia = test system: MOLT-4 leukemia
# HS 578T breast = test system: HS 578T breast
# NCI-H226 lung = test system: NCI-H226 lung
# ACHN renal = test system: ACHN renal
# IGROV1 ovarian = test system: IGROV1 ovarian
# 786-0 renal = test system: 786-0 renal
# SK-MEL-5 melanoma = test system: SK-MEL-5 melanoma
# PC-3 prostate = test system: PC-3 prostate
# M14 melanoma = test system: M14 melanoma
# MDA-N = test system: MDA-N
# T-47D breast = test system: T-47D breast
# HCC-2998 colon = test system: HCC-2998 colon
# A549 NSCLC = test system: A549 NSCLC
# K-562 leukemia = test system: K-562 leukemia
# SR leukemia = test system: SR leukemia
# A498 renal = test system: A498 renal
# HL-60(TB) leukemia = test system: HL-60(TB) leukemia
# HOP-92 NSCLC = test system: HOP-92 NSCLC
# UO-31 renal = test system: UO-31 renal
# RPMI-8226 leukemia = test system: RPMI-8226 leukemia
# SN12C renal = test system: SN12C renal
# NCI/ADR-RES ovarian = test system: NCI/ADR-RES ovarian
# KM12 colon = test system: KM12 colon
# SF-295 CNS = test system: SF-295 CNS
# SF-268 CNS = test system: SF-268 CNS
# U251 CNS = test system: U251 CNS
# COLO 205 colon = test system: COLO 205 colon
# MALME-3M melanoma = test system: MALME-3M melanoma
# NCI-H522 lung = test system: NCI-H522 lung
# HOP-62 NSCLC = test system: HOP-62 NSCLC
# EKVX NSCLC = test system: EKVX NSCLC
# SK-OV-3 ovarian = test system: SK-OV-3 ovarian
# CCRF-CEM leukemia = test system: CCRF-CEM leukemia
# OVCAR-8 ovarian = test system: OVCAR-8 ovarian
# OVCAR-3 ovarian = test system: OVCAR-3 ovarian
# OVCAR-4 ovarian = test system: OVCAR-4 ovarian
# SK-MEL-28 melanoma = test system: SK-MEL-28 melanoma
# MCF7 breast = test system: MCF7 breast
# SK-MEL-2 melanoma = test system: SK-MEL-2 melanoma
# RXF 393 renal = test system: RXF 393 renal
# NCI-H460 lung = test system: NCI-H460 lung
# BT-549 breast = test system: BT-549 breast
# TK-10 renal = test system: TK-10 renal
compound,measurement,setting,value
Cc1cccc(NC(=S)N=Nc2c(O)[nH]c3ccccc23)c1,TGI,UACC-257 melanoma,> 100 µM
same,TGI,HCT-116 colon,> 100 µM
same,TGI,CAKI-1 renal,> 100 µM
same,TGI,HT29 colon,> 100 µM
same,TGI,SNB-19 CNS,> 100 µM
same,TGI,LOX IMVI melanoma,> 100 µM
same,TGI,HCT-15 colon,> 100 µM
same,TGI,UACC-62 melanoma,> 100 µM
same,TGI,SNB-75 CNS,> 100 µM
same,TGI,SF-539 CNS,> 100 µM
same,TGI,DU-145 prostate,70.6 µM
same,TGI,OVCAR-5 ovarian,> 100 µM
same,TGI,NCI-H23 lung,> 100 µM
same,TGI,MDA-MB-231 breast,> 100 µM
same,TGI,MDA-MB-435,> 100 µM
same,TGI,SW-620 colon,> 100 µM
same,TGI,MOLT-4 leukemia,> 100 µM
same,TGI,HS 578T breast,> 100 µM
same,TGI,NCI-H226 lung,> 100 µM
same,TGI,ACHN renal,> 100 µM
same,TGI,IGROV1 ovarian,> 100 µM
same,TGI,786-0 renal,> 100 µM
same,TGI,SK-MEL-5 melanoma,> 100 µM
same,TGI,PC-3 prostate,> 100 µM
same,TGI,M14 melanoma,> 100 µM
same,TGI,MDA-N,> 100 µM
same,TGI,T-47D breast,> 100 µM
same,TGI,HCC-2998 colon,> 100 µM
same,TGI,A549 NSCLC,> 100 µM
same,TGI,K-562 leukemia,> 100 µM
same,TGI,SR leukemia,> 100 µM
same,TGI,A498 renal,98.1 µM
same,TGI,HL-60(TB) leukemia,> 100 µM
same,TGI,HOP-92 NSCLC,> 100 µM
same,TGI,UO-31 renal,> 100 µM
same,TGI,RPMI-8226 leukemia,> 100 µM
same,TGI,SN12C renal,> 100 µM
same,TGI,NCI/ADR-RES ovarian,85.9 µM
same,TGI,KM12 colon,> 100 µM
same,TGI,SF-295 CNS,> 100 µM
same,TGI,SF-268 CNS,58.7 µM
same,TGI,U251 CNS,> 100 µM
same,TGI,COLO 205 colon,> 100 µM
same,TGI,MALME-3M melanoma,> 100 µM
same,TGI,NCI-H522 lung,> 100 µM
same,TGI,HOP-62 NSCLC,> 100 µM
same,TGI,EKVX NSCLC,> 100 µM
same,TGI,SK-OV-3 ovarian,> 100 µM
same,TGI,CCRF-CEM leukemia,> 100 µM
same,TGI,OVCAR-8 ovarian,> 100 µM
same,TGI,OVCAR-3 ovarian,> 100 µM
same,TGI,OVCAR-4 ovarian,> 100 µM
same,TGI,SK-MEL-28 melanoma,> 100 µM
same,TGI,MCF7 breast,> 100 µM
same,TGI,SK-MEL-2 melanoma,> 100 µM
same,TGI,RXF 393 renal,> 100 µM
same,TGI,NCI-H460 lung,> 100 µM
CC(=O)Nc1ccc2c3c(cc(O)c2c1)N(C(=O)CCCCC(=O)Nc1ccc2c4c(cc(O)c2c1)N(C(=O)OC(C)(C)C)CC4CCl)CC3CCl (centres undefined),TGI,UACC-257 melanoma,5.16 µM
same,TGI,HCT-116 colon,> 33.2 µM
same,TGI,CAKI-1 renal,71.5 µM
same,TGI,HT29 colon,> 37.9 µM
same,TGI,SNB-19 CNS,> 29.5 µM
same,TGI,LOX IMVI melanoma,> 34.6 µM
same,TGI,HCT-15 colon,48.2 µM
same,TGI,UACC-62 melanoma,3.16 µM
same,TGI,SNB-75 CNS,4.59 µM
same,TGI,SF-539 CNS,7.62 µM
same,TGI,DU-145 prostate,4.39 µM
same,TGI,OVCAR-5 ovarian,10.6 µM
same,TGI,BT-549 breast,> 27.1 µM
same,TGI,NCI-H23 lung,7.09 µM
same,TGI,MDA-MB-231 breast,26.8 µM
same,TGI,MDA-MB-435,2.95 µM
same,TGI,TK-10 renal,> 65.5 µM
same,TGI,SW-620 colon,> 100 µM
same,TGI,MOLT-4 leukemia,> 34.4 µM
same,TGI,HS 578T breast,> 26.6 µM
same,TGI,NCI-H226 lung,5.55 µM
same,TGI,ACHN renal,16.1 µM
same,TGI,IGROV1 ovarian,> 32.8 µM
same,TGI,786-0 renal,9.36 µM
same,TGI,SK-MEL-5 melanoma,3.18 µM
same,TGI,PC-3 prostate,> 44.8 µM
same,TGI,M14 melanoma,> 34.1 µM
same,TGI,MDA-N,3.85 µM
same,TGI,HCC-2998 colon,3.79 µM
same,TGI,A549 NSCLC,> 55.6 µM
same,TGI,K-562 leukemia,> 100 µM
same,TGI,A498 renal,4.57 µM
same,TGI,HL-60(TB) leukemia,12.4 µM
same,TGI,HOP-92 NSCLC,32.8 µM
same,TGI,UO-31 renal,> 63.9 µM
same,TGI,RPMI-8226 leukemia,> 25.8 µM
same,TGI,SN12C renal,21.8 µM
same,TGI,NCI/ADR-RES ovarian,> 79.7 µM
same,TGI,KM12 colon,> 100 µM
same,TGI,SF-295 CNS,> 56.8 µM
same,TGI,SF-268 CNS,7.21 µM
same,TGI,U251 CNS,10 µM
same,TGI,COLO 205 colon,4.17 µM
same,TGI,MALME-3M melanoma,3.52 µM
same,TGI,NCI-H522 lung,4.1 µM
same,TGI,HOP-62 NSCLC,> 33.2 µM
same,TGI,EKVX NSCLC,35.2 µM
same,TGI,SK-OV-3 ovarian,> 85.3 µM
same,TGI,CCRF-CEM leukemia,4.53 µM
same,TGI,OVCAR-8 ovarian,> 38.7 µM
same,TGI,OVCAR-3 ovarian,5.41 µM
same,TGI,OVCAR-4 ovarian,> 24.3 µM
same,TGI,SK-MEL-28 melanoma,23.2 µM
same,TGI,MCF7 breast,5.16 µM
same,TGI,SK-MEL-2 melanoma,3.49 µM
same,TGI,RXF 393 renal,3.26 µM
same,TGI,NCI-H460 lung,> 33.8 µM

# Reference: PubChem BioAssay (NCI)
